Data taken from patent US12570988B2, “Aptamers that bind thiamine analogs and derivatives” (MeiraGTx Gene Regulation Limited, priority 2020, dated 2026).

Key:
riboswitch 15D10 [1] = assay: Luciferase reporter with 15D10 riboswitch (Luci-15D10) in HEK 293 cells; type: cell-based, human; details: Homo sapiens, HEK293, 24 h, 50 μM; HEK 293 cells; Table 3; read-out: Fold increase in riboswitch 15D10-regulated luciferase expression, HEK
Method in brief: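 Cells transfected with riboswitch-luciferase plasmid; 4 h later medium replaced with TPP or thiamine analogs (fursultiamine, prosultiamine, bisbentiamine, beclotiamine, sulbutiamine) as inducers.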

riboswitch 15D10 [2] = assay: Luciferase reporter with 15D10 riboswitch (Luci-15D10) in AML12 cells; type: cell-based, mouse; details: Mus musculus, AML12, 24 h, 50 μM; AML12 cells; Table 3; read-out: Fold increase in riboswitch 15D10-regulated luciferase expression, AML

Compound	fold induction at 50 µM (riboswitch 15D10 [1])	fold induction at 50 µM (riboswitch 15D10 [2])
C/C(=C(\CCO)SC(=O)c1ccccc1Oc1ccccc1Br)N(C=O)Cc1cnc(C)nc1N [Compound M137, (Z)—S-(2-(N-((4-amino-2-methylpyrimidin-5-yl)methyl)formamido)-5-hydroxypent-2-en-3-yl) 2-(2-bromophenoxy)benzothioate]	140	288
C/C(=C(\CCO)SC(=O)c1ccccc1Oc1c(Cl)cccc1Cl)N(C=O)Cc1cnc(C)nc1N [Compound M138, (Z)—S-(2-(N-((4-amino-2-methylpyrimidin-5-yl)methyl)formamido)-5-hydroxypent-2-en-3-yl) 2-(2,6-dichlorophenoxy)benzothioate]	228	195
C/C(=C(\CCO)SC(=O)c1ccccc1Oc1cccc(C(C)(C)C)c1)N(C=O)Cc1cnc(C)nc1N [Compound M139, (Z)—S-(2-(N-((4-amino-2-methylpyrimidin-5-yl)methyl)formamido)-5-hydroxypent-2-en-3-yl) 2-(3-(tert-butyl)phenoxy)benzothioate]	37	188
C/C(=C(\CCO)SC(=O)c1ccccc1Oc1ccc2ccccc2c1)N(C=O)Cc1cnc(C)nc1N [Compound M140, (Z)—S-(2-(N-((4-amino-2-methylpyrimidin-5-yl)methyl)formamido)-5-hydroxypent-2-en-3-yl) 2-(naphthalen-2-yloxy)benzothioate]	175	192
C/C(=C(\CCO)SC(=O)c1ccccc1Oc1cccc2cccnc12)N(C=O)Cc1cnc(C)nc1N [Compound M141, (Z)—S-(2-(N-((4-amino-2-methylpyrimidin-5-yl)methyl)formamido)-5-hydroxypent-2-en-3-yl) 2-(quinolin-8-yloxy)benzothioate]	1.61	3.46
C/C(=C(\CCO)SC(=O)c1c(F)cccc1Oc1ccccc1Cl)N(C=O)Cc1cnc(C)nc1N [Compound M142, (Z)—S-(2-(N-((4-amino-2-methylpyrimidin-5-yl)methyl)formamido)-5-hydroxypent-2-en-3-yl) 2-(2-chlorophenoxy)-6-fluorobenzothioate]	85.3	184
CCOc1ccc(C(=O)S/C(CCO)=C(/C)N(C=O)Cc2cnc(C)nc2N)c(Oc2cccc(F)c2)c1 [Compound M143, (Z)—S-(2-(N-((4-amino-2-methylpyrimidin-5-yl)methyl)formamido)-5-hydroxypent-2-en-3-yl) 4-ethoxy-2-(3-fluorophenoxy)benzothioate]	138	300
C/C(=C(\CCO)SC(=O)c1ccc(C(C)(C)C)cc1Oc1ccccc1)N(C=O)Cc1cnc(C)nc1N [Compound M145, (Z)—S-(2-(N-((4-amino-2-methylpyrimidin-5-yl)methyl)formamido)-5-hydroxypent-2-en-3-yl) 4-(tert-butyl)-2-phenoxybenzothioate]	156	60.6
C/C(=C(\CCO)SC(=O)c1ccccc1Oc1ccc(C(F)(F)F)nc1)N(C=O)Cc1cnc(C)nc1N [Compound M146, (Z)—S-(2-(N-((4-amino-2-methylpyrimidin-5-yl)methyl)formamido)-5-hydroxypent-2-en-3-yl) 2-((6-(trifluoromethyl)pyridin-3-yl)oxy)benzothioate]	53.3	96.6
C/C(=C(\CCO)SC(=O)c1ccccc1Oc1ccc2c(c1)OCCO2)N(C=O)Cc1cnc(C)nc1N [Compound M147, (Z)—S-(2-(N-((4-amino-2-methylpyrimidin-5-yl)methyl)formamido)-5-hydroxypent-2-en-3-yl) 2-((2,3-dihydrobenzo[b][1,4]dioxin-6-yl)oxy)benzothioate]	193	267
C/C(=C(\CCO)SC(=O)c1cccc2c1oc1ccccc12)N(C=O)Cc1cnc(C)nc1N [Compound M148, (Z)—S-(2-(N-((4-amino-2-methylpyrimidin-5-yl)methyl)formamido)-5-hydroxypent-2-en-3-yl) dibenzo[b,d]furan-4-carbothioate]	153	288
C/C(=C(\CCO)SC(=O)c1ccc(Oc2ccccc2)cc1Cl)N(C=O)Cc1cnc(C)nc1N [Compound M149, (Z)—S-(2-(N-((4-amino-2-methylpyrimidin-5-yl)methyl)formamido)-5-hydroxypent-2-en-3-yl) 2-chloro-4-phenoxybenzothioate]	176	383
C/C(=C(\CCO)SC(=O)c1c(C)cc(Oc2ccccc2)cc1F)N(C=O)Cc1cnc(C)nc1N [Compound M150, (Z)—S-(2-(N-((4-amino-2-methylpyrimidin-5-yl)methyl)formamido)-5-hydroxypent-2-en-3-yl) 2-fluoro-6-methyl-4-phenoxybenzothioate]	12.3	12
C/C(=C(\CCO)SC(=O)c1ccc(Oc2cccc(Cl)c2)cc1C)N(C=O)Cc1cnc(C)nc1N [Compound M151, (Z)—S-(2-(N-((4-amino-2-methylpyrimidin-5-yl)methyl)formamido)-5-hydroxypent-2-en-3-yl) 4-(3-chlorophenoxy)-2-methylbenzothioate]	20.5	231
C/C(=C(\CCO)SC(=O)c1ccc(Oc2ccccc2)cc1Oc1ccccc1)N(C=O)Cc1cnc(C)nc1N [Compound M152, (Z)—S-(2-(N-((4-amino-2-methylpyrimidin-5-yl)methyl)formamido)-5-hydroxypent-2-en-3-yl) 2,4-diphenoxybenzothioate]	68.9	36.6
C/C(=C(\CCO)SC(=O)c1ccccc1Sc1ccccc1)N(C=O)Cc1cnc(C)nc1N [Compound M153, (Z)—S-(2-(N-((4-amino-2-methylpyrimidin-5-yl)methyl)formamido)-5-hydroxypent-2-en-3-yl) 2-(phenylthio)benzothioate]	442	535
C/C(=C(\CCO)SC(=O)c1ccccc1Oc1ccc(N2CCCC2=O)cc1)N(C=O)Cc1cnc(C)nc1N [Compound M155, (Z)—S-(2-(N-((4-amino-2-methylpyrimidin-5-yl)methyl)formamido)-5-hydroxypent-2-en-3-yl) 2-(4-(2-oxopyrrolidin-1-yl)phenoxy)benzothioate]	7.71	117
C/C(=C(\CCO)SC(=O)c1ccc(C(C)(C)C)cc1Oc1cccc(C(C)(C)C)c1)N(C=O)Cc1cnc(C)nc1N [Compound M156, (Z)—S-(2-(N-((4-amino-2-methylpyrimidin-5-yl)methyl)formamido)-5-hydroxypent-2-en-3-yl) 4-(tert-butyl)-2-(3-(tert-butyl)phenoxy)benzothioate]	0.06	10.1
C/C(=C(\CCO)SC(=O)c1ccccc1Oc1cccc2ccccc12)N(C=O)Cc1cnc(C)nc1N [Compound M157, (Z)—S-(2-(N-((4-amino-2-methylpyrimidin-5-yl)methyl)formamido)-5-hydroxypent-2-en-3-yl) 2-(naphthalen-1-yloxy)benzothioate]	118	316
C/C(=C(\CCO)SC(=O)c1cc(Cl)ccc1Oc1ccccc1Cl)N(C=O)Cc1cnc(C)nc1N [Compound M158, (Z)—S-(2-(N-((4-amino-2-methylpyrimidin-5-yl)methyl)formamido)-5-hydroxypent-2-en-3-yl) 5-chloro-2-(2-chlorophenoxy)benzothioate]	96.9	235
C/C(=C(\CCO)SC(=O)c1cc(Cl)ccc1Oc1ccccc1Br)N(C=O)Cc1cnc(C)nc1N [Compound M159, (Z)—S-(2-(N-((4-amino-2-methylpyrimidin-5-yl)methyl)formamido)-5-hydroxypent-2-en-3-yl) 2-(2-bromophenoxy)-5-chlorobenzothioate]	85.5	206
C/C(=C(\CCO)SC(=O)c1c(F)cccc1Oc1ccccc1Br)N(C=O)Cc1cnc(C)nc1N [Compound M160, (Z)—S-(2-(N-((4-amino-2-methylpyrimidin-5-yl)methyl)formamido)-5-hydroxypent-2-en-3-yl) 2-(2-bromophenoxy)-6-fluorobenzothioate]	79.5	131
